Source: patent US8961942B2, “Sunless tanning compositions with adjuvants comprising sulfur comprising moieties” (Conopco, Inc., priority 2011, dated 2015)
Where a name gives a salt, the structure may show the parent alone.

Experiment: In vitro color change (ΔE*) of adjuvant plus dihydroxyacetone formulations on synthetic skin
Details: for ΔE* at 5 hours / ΔE* at 21 hours / ΔE* at 46 hours: Example 4: total adjuvant at molar equivalent of 1% glycine, dihydroxyacetone 2.5%; for ΔE* at 5 hours: pH 3.5, 5 hours; for ΔE* at 21 hours: pH 3.5, 21 hours; for ΔE* at 46 hours: pH 3.5, 46 hours; for ΔE* at 5.5 Hours / ΔE* at 29 Hours / ΔE* at 53 Hours: adjuvant at molar equivalent of 1% glycine with 2.5% dihydroxyacetone, pH 3.5, 5 μl/cm^2, 35° C. and 40% RH
Procedure: Commercially available Vitro-Skin® (synthetic skin) was used as the substrate and pH of the adjuvant and dihydroxyacetone formulations were maintained at 3.5, adjusted with citric acid.
The synthetic skin was pre-hydrated at 95% Relative Humidity (RH) for about 24 hours and then treated with formulations at a dosage of 5 μl/cm^2. The treated synthetic skin was stored at 35° C. and 40% RH for certain time frames, not exceeding 53 hours. Color development was monitored periodically after treatment using a HunterLab Labscan XE colorimeter. ΔE* is defined as √[(ΔL*)^2+(Δa+)^2+(Δb*)^2] where ΔL* is lightness change, Δa* is the change in +red/−green, Δb* is the change in […] and further where smaller ΔE* indicates less color change.

SMILES	ΔE* at 5 hours	ΔE* at 21 hours	ΔE* at 46 hours	ΔE* at 5.5 Hours	ΔE* at 29 Hours	ΔE* at 53 Hours
NCCOS(=O)(=O)O [2-Aminoethyl Hydrogen Sulfate]	15	25	27	20.0	35.0	39.0
CSCCN [2-Methylthio-Ethylamine]	–	–	–	22.0	32.0	36.0
NCC(=O)O [Glycine, reference compound]	–	–	–	15.5	33.0	37.0
NCCS(=O)O [Hypotaurine]	–	–	–	8.0	21.0	26.0
NCCS(=O)(=O)O [Taurine]	9	26	28	17.0	33.0	36.0
